Measured values taken from patent US20260232763A1 (Kadmon Corporation, LLC, priority 2023, published 2026).

Test: solubility
Assay type: physicochemical
Details: in vitro assessments

SMILES: CC(C)NC(=O)COc1cccc(-c2nc(Nc3ccc4[nH]ncc4c3)c3ccccc3n2)c1 [belumosudil, 2-{3-[4-(1H-indazol-5-ylamino)-2-quinazolinyl]phenoxy}-N-(propan-2-yl) acetamide]
- solubility: pH dependent
